Reference: patent US12077503B2, “Substituted cyclic amides and their use as herbicides” (FMC CORPORATION, priority 2015, dated 2024)

Key:
Type in all cases: in vivo
[1] = tested on: giant foxtail (Setaria faberii); assay: Test A preemergence; conditions: Setaria faberi, pre-emergence, 240 h, 0 to 100 scale where 0 is no effect and 100 is complete control, read-out: Foxtail, Giant plant response rating
Outline: (§1)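 Ratings of 0 (no effect) to 100 (complete control) come from visual comparison with untreated controls roughly 10 d after treatment. Test chemicals, formulated in a non-phytotoxic solvent mixture with surfactant, were applied either as a preemergence directed soil spray on seeded soil or postemergence to one- to two-leaf plants 2 to 10 cm tall.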

[2] = tested on: ryegrass, Italian (Italian ryegrass, Lolium multiflorum); assay: Test A preemergence; conditions: Lolium multiflorum, pre-emergence, 240 h, 0 to 100 scale where 0 is no effect and 100 is complete control, read-out: Ryegrass, Italian plant response rating
Outline: as §1

[3] = tested on: pigweed (Amaranthus retroflexus); assay: Test A preemergence; conditions: Amaranthus retroflexus, pre-emergence, 240 h, 0 to 100 scale where 0 is no effect and 100 is complete control, read-out: Pigweed plant response rating
[4] = tested on: barnyardgrass (Echinochloa crus-galli); assay: Test A preemergence; conditions: Echinochloa crus-galli, pre-emergence, 240 h, 0 to 100 scale where 0 is no effect and 100 is complete control, read-out: Barnyardgrass plant response rating
Outline: as §1

Kochia (Kochia scoparia) [5] = assay: Test A preemergence; conditions: Bassia scoparia, pre-emergence, 240 h, 0 to 100 scale where 0 is no effect and 100 is complete control, read-out: Kochia plant response rating
Outline: as §1

[6] = tested on: ragweed (common ragweed, Ambrosia elatior); assay: Test A preemergence; conditions: Ambrosia artemisiifolia, pre-emergence, 240 h, 0 to 100 scale where 0 is no effect and 100 is complete control, read-out: Ragweed plant response rating
Outline: as §1

rice (Oryra sativa) = assay: Test B flooded paddy test; conditions: Oryza sativa, 250 g ai/ha, Flood; 0 to 100 scale where 0 is no effect and 100 is complete control; read-out: Rice plant response rating
Outline: (§2)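 Response scored visually against untreated controls, 0 = no effect and 100 = complete control, 13–15 d after treatment in the greenhouse. Compounds added to paddy water held 3 cm above soil surface. Treatment given at 2-leaf stage.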

[7] = tested on: sedge, umbrella (small-flower umbrella sedge, Cyperus difformis); assay: Test B flooded paddy test; conditions: Cyperus difformis, 250 g ai/ha, Flood; 0 to 100 scale where 0 is no effect and 100 is complete control; read-out: Sedge, Umbrella plant response rating
Outline: as §2

[8] = tested on: barnyardgrass (Echinochloa crus-galli); assay: Test B flooded paddy test; conditions: Echinochloa crus-galli, 250 g ai/ha, Flood; 0 to 100 scale where 0 is no effect and 100 is complete control; read-out: Barnyardgrass plant response rating
Outline: as §2

[9] = tested on: ducksalad (Heteranthera limosa); assay: Test B flooded paddy test; conditions: Heteranthera limosa, 250 g ai/ha, Flood; 0 to 100 scale where 0 is no effect and 100 is complete control; read-out: Ducksalad plant response rating
Outline: as §2

[10] = tested on: giant foxtail (Setaria faberii); assay: Test A postemergence; conditions: Setaria faberi, post-emergence, 240 h
Outline: as §1

corn (Zea mays) = assay: Test A postemergence; conditions: Zea mays, post-emergence, 240 h
Outline: as §1

[11] = tested on: ryegrass, Italian (Italian ryegrass, Lolium multiflorum); assay: Test A postemergence; conditions: Lolium multiflorum, post-emergence, 240 h
Outline: as §1

[12] = tested on: Galium (catchweed bedstraw, Galium aparine); assay: Test A postemergence; conditions: Galium, post-emergence, 240 h
Outline: as §1

[13] = tested on: blackgrass (Alopecurus myosuroides); assay: Test A postemergence; conditions: Alopecurus myosuroides, post-emergence, 240 h
Outline: as §1

[14] = tested on: pigweed (Amaranthus retroflexus); assay: Test A postemergence; conditions: Amaranthus retroflexus, post-emergence, 240 h
Outline: as §1

[15] = tested on: wheat (Triticum aestivum); assay: Test A postemergence; conditions: Triticum aestivum, post-emergence, 240 h
Outline: as §1

[16] = tested on: barnyardgrass (Echinochloa crus-galli); assay: Test A postemergence; conditions: Echinochloa crus-galli, post-emergence, 240 h
Outline: as §1

Kochia (Kochia scoparia) [17] = assay: Test A postemergence; conditions: Bassia scoparia, post-emergence, 240 h
Outline: as §1

[18] = tested on: ragweed (common ragweed, Ambrosia elatior); assay: Test A postemergence; conditions: Ambrosia artemisiifolia, post-emergence, 240 h
Outline: as §1

[19] = 125 g ai/ha, preemergence, approx. 10 d

`COc1cccc([C@H]2CN(C)C(=O)[C@@H]2C(=O)Nc2cccc(F)c2F)c1F` [Compound 1072] was tested, and the pest or weed control at 31 g/ha ([1]; 31 g ai/ha, Preemergence) was 90%, the pest or weed control at 125 g/ha [1, 19] was 100% and the pest or weed control at 31 g/ha ([2]; 31 g ai/ha, Preemergence) was 0%. The pest or weed control at 125 g/ha [2, 19] was 0%, the pest or weed control at 31 g/ha ([3]; 31 g ai/ha, Preemergence) was 0% and the pest or weed control at 125 g/ha [3, 19] was 0%. The pest or weed control at 31 g/ha ([4]; 31 g ai/ha, Preemergence) was 90%, the pest or weed control at 125 g/ha [4, 19] was 100% and the pest or weed control at 31 g/ha (Kochia (Kochia scoparia) [5]; 31 g ai/ha, Preemergence) was 0%. The pest or weed control at 125 g/ha (Kochia (Kochia scoparia) [5]; [19]) was 0%, the pest or weed control at 31 g/ha ([6]; 31 g ai/ha, Preemergence) was 0% and the pest or weed control at 125 g/ha [6, 19] was 0%. For the same molecule, the pest or weed control at 250 g/ha (rice (Oryra sativa)) was 15%, the pest or weed control at 250 g/ha [7] was 0% and the pest or weed control at 250 g/ha [8] was 70%. It also gave a pest or weed control at 250 g/ha [9] of 80%, a pest or weed control at 125 g/ha ([10]; 125 g ai/ha, postemergence, visual injury on 0 to 100 scale (0 no effect, 100 complete control), approx. 10 d, read-out: Foxtail, Giant plant response rating) of 90% and a pest or weed control at 31 g/ha ([10]; Postemergence, 31 g ai/ha, visual injury after approx. 10 d, 0 to 100 scale, 0 no effect, 100 complete control, read-out: Plant response rating, Foxtail, Giant) of 80%. The plant injury at 125 g/ha (corn (Zea mays); 125 g ai/ha, postemergence, visual injury on 0 to 100 scale (0 no effect, 100 complete control), approx. 10 d, read-out: Corn plant response rating) was 0%, the Corn plant response rating (crop injury, 0 = no effect, 100 = complete kill) at 31 g/ha (corn (Zea mays); Postemergence, 31 g ai/ha, visual injury after approx. 10 d, 0 to 100 scale, 0 no effect, 100 complete control) was 0% and the pest or weed control at 125 g/ha ([11]; 125 g ai/ha, postemergence, visual injury on 0 to 100 scale (0 no effect, 100 complete control), approx. 10 d, read-out: Ryegrass, Italian plant response rating) was 30%. For the same molecule, the pest or weed control at 31 g/ha ([11]; Postemergence, 31 g ai/ha, visual injury after approx. 10 d, 0 to 100 scale, 0 no effect, 100 complete control, read-out: Plant response rating, Ryegrass, Italian) was 0%, the pest or weed control at 125 g/ha ([12]; 125 g ai/ha, postemergence, visual injury on 0 to 100 scale (0 no effect, 100 complete control), approx. 10 d, read-out: Galium plant response rating) was 0% and the pest or weed control at 31 g/ha ([12]; Postemergence, 31 g ai/ha, visual injury after approx. 10 d, 0 to 100 scale, 0 no effect, 100 complete control, read-out: Plant response rating, Galium) was 0%. The pest or weed control at 125 g/ha ([13]; 125 g ai/ha, postemergence, visual injury on 0 to 100 scale (0 no effect, 100 complete control), approx. 10 d, read-out: Blackgrass plant response rating) was 20%, the pest or weed control at 31 g/ha ([13]; Postemergence, 31 g ai/ha, visual injury after approx. 10 d, 0 to 100 scale, 0 no effect, 100 complete control, read-out: Plant response rating, Blackgrass) was 0% and the pest or weed control at 125 g/ha ([14]; 125 g ai/ha, postemergence, visual injury on 0 to 100 scale (0 no effect, 100 complete control), approx. 10 d, read-out: Pigweed plant response rating) was 0%. The pest or weed control at 31 g/ha ([14]; Postemergence, 31 g ai/ha, visual injury after approx. 10 d, 0 to 100 scale, 0 no effect, 100 complete control, read-out: Plant response rating, Pigweed) was 0%, the plant injury at 125 g/ha ([15]; 125 g ai/ha, postemergence, visual injury on 0 to 100 scale (0 no effect, 100 complete control), approx. 10 d, read-out: Wheat plant response rating) was 20% and the plant injury at 31 g/ha ([15]; Postemergence, 31 g ai/ha, visual injury after approx. 10 d, 0 to 100 scale, 0 no effect, 100 complete control, read-out: Plant response rating, Wheat) was 0%. The pest or weed control at 125 g/ha ([16]; 125 g ai/ha, postemergence, visual injury on 0 to 100 scale (0 no effect, 100 complete control), approx. 10 d, read-out: Barnyardgrass plant response rating) was 100%, the pest or weed control at 31 g/ha ([16]; Postemergence, 31 g ai/ha, visual injury after approx. 10 d, 0 to 100 scale, 0 no effect, 100 complete control, read-out: Plant response rating, Barnyardgrass) was 90% and the pest or weed control at 125 g/ha (Kochia (Kochia scoparia) [17]; 125 g ai/ha, postemergence, visual injury on 0 to 100 scale (0 no effect, 100 complete control), approx. 10 d, read-out: Kochia plant response rating) was 0%. The pest or weed control at 31 g/ha (Kochia (Kochia scoparia) [17]; Postemergence, 31 g ai/ha, visual injury after approx. 10 d, 0 to 100 scale, 0 no effect, 100 complete control, read-out: Plant response rating, Kochia) was 0%, the pest or weed control at 125 g/ha ([18]; 125 g ai/ha, postemergence, visual injury on 0 to 100 scale (0 no effect, 100 complete control), approx. 10 d, read-out: Ragweed plant response rating) was 0% and the pest or weed control at 31 g/ha ([18]; Postemergence, 31 g ai/ha, visual injury after approx. 10 d, 0 to 100 scale, 0 no effect, 100 complete control, read-out: Plant response rating, Ragweed) was 0%.
